In US11021470B2, “2-substituted quinazoline compounds comprising a substituted heterocyclic group and methods of use thereof” (Araxes Pharma LLC, priority 2015, dated 2021):

Biological target: T1, KRAS G12C 1-169, his-tagged protein, GDP-loaded (Homo sapiens, UniProt P01116, G12C)
T1 construct: KRAS G12C 1-169, his-tagged protein, GDP-loaded
Test: KRAS G12C covalent binding (% modification) by mass spectrometry, ten or three minute incubation
Details: covalent binding to KRAS G12C after a ten minute incubation period
Description: Test compounds were prepared as 10 mM stock solutions in DMSO (Fisher cat #BP-231-100). KRAS G12C 1-169, his-tagged protein, GDP-loaded was diluted to […] in buffer (20 mM Hepes, 150 mM NaCl, 1 mM MgCl2). Compounds were tested for activity as follows:
Compounds were diluted to 50× final test concentration in DMSO in 96-well storage plates. Compound stock solutions were vortexed before use and observed carefully for any sign of precipitation. Dilutions were as follow: • For 100 μM final compound concentration, compounds were diluted to 5000 μM (5 μl 10 mM compound stock+5 μl DMSO and mixed well by pipetting. • For 30 μM final compound concentration, compounds were diluted to 1500 μM (3 μl 10 mM compound stock+17 μl DMSO) and mixed well by pipetting. • For 10 μM final compound concentration, compounds were diluted to 500 μM (2 μl 10 mM compound stock+38 μl DMSO) and mixed well by pipetting. 49 μl of the stock protein solution was added to each well of a 96-well PCR plate (Fisher cat #1423027). 1 μl of the diluted 50× compounds were added to appropriate wells in the PCR plate using 12-channel pipettor. Reactions were mixed carefully and thoroughly by pipetting up/down with a 200 μl multi-channel pipettor. […] 5 μl of 2% formic acid (Fisher cat #A117) in DI H2O was then added to each well followed by mixing with a pipette. The plate was then resealed with aluminum seal and stored on dry ice until analyzed as described below.
The above described assays were analyzed by mass spectrometry according to one of the following two procedures:
The MS instrument is set to positive polarity, 2 GHz resolution, and low mass (1700) mode and allowed to equilibrate for 30 minutes. The instrument is then calibrated, switched to acquisition mode and the appropriate method loaded.
After another 30 minute equilibration time, a blank batch (i.e., buffer) is run to ensure equipment is operating properly. The samples are thawed at 37° C. for 10 minutes, briefly centrifuged, and transfer to the bench top. Wells A1 and H12 are spiked with 1 μL 500 μM internal standard peptide, and the plates centrifuged at 2000×g for 5 minutes. The method is then run and masses of each individual well recorded.
The masses (for which integration data is desired) for each well are pasted into the platemap and exported from the analysis. Masses for the internal standards are exported as well. The data at 50 ppm is extracted for the +19 charge state, and identity of well A1 is assigned using the internal standard spike and integrated. Peak data is exported as a TOF list and the above steps are repeated individually, for the +20, 21, 22, 23, 24, and 25 charge states.
The masses and peak intensities of KRAS G12C protein species were measured using a Dionex RSLCnano system (Thermo Scientific) connected to a Q Exactive Plus mass spectrometer (Thermo Scientific).
[…] of sample was each loaded onto a Aeris™ 3.6 μm WIDEPORE C4 200 Å, LC Column 50×2.1 mm column maintained at 40° C. at a flow rate of 600 μl min^−1 with […] (0.1% formic acid in acetonitrile). The liquid chromatography conditions were 20% solvent B for 1 min, 20% to 60% solvent B for 1.5 min, 60% to 90% solvent for 0.5 min, 90% solvent B for 0.2 min, 90% to 20% solvent B for 0.2 min, and then equilibrated for 1.6 min before the following sample injection. The flow rate was maintained at 600 μl min^−1 throughout the sample analysis.
The mass spectrometer was operated in profile mode at a resolution of 17500, 5 microscans, using 50 msec max injection time and an AGC target of 1e6, and a full mass range from 800-1850 m/z was recorded. The HCD trapping gas was optimized for maximum sensitivity for intact proteins. The ionization method was electrospray ionization, which used a spray voltage of 4 kV, sheath gas flow set to 50 au, auxiliary gas flow set to 10 au and sweep gas flow set to 1 au. […]

Q: `C=CC(=O)N1CCN(c2nc(N3CC(N(C)C)C3)nc3c(F)c(-c4c(O)cccc4F)c(Cl)cc23)C[C@@H]1C` [Compound 82, 1-((2S)-4-(6-chloro-2-(3-(dimethylamino)azetidin-1-yl)-8-fluoro-7-(2-fluoro-6-hydroxyphenyl)quinazolin-4-yl)-2-methylpiperazin-1-yl)prop-2-en-1-one] was tested. Which Binding % did it give?
A: ++ (++ indicates binding activity from 50 to 90%)

Same assay, conditions: covalent binding to KRAS G12C, % modification after a three minute incubation period

Q: Which Binding % does the source give for `C=CC(=O)N1C[C@H](C)N(c2nc(OCCn3ccc4cccnc43)nc3c(F)c(-c4c(O)cccc4F)c(Cl)cc23)C[C@H]1C` [Compound 263, 1-((2R,5S)-4-(2-(2-(1H-pyrrolo[2,3-b]pyridin-1-yl)ethoxy)-6-chloro-8-fluoro-7-(2-fluoro-6-hydroxyphenyl)quinazolin-4-yl)-2,5-dimethylpiperazin-1-yl)prop-2-en-1-one] here?
A: + (+ indicates binding activity greater than 0% and up to 50%)

Q: For `C=CC(=O)N1C[C@H](C)N(c2nc(N3CC(N(C)C)C3)nc3c(F)c(-c4c(C)ccc5[nH]nc(C)c45)c(Cl)cc23)C[C@H]1C` [Compound 252, 1-((2R,5S)-4-(6-chloro-7-(3,5-dimethyl-1H-indazol-4-yl)-2-(3-(dimethylamino)azetidin-1-yl)-8-fluoroquinazolin-4-yl)-2,5-dimethylpiperazin-1-yl)prop-2-en-1-one], which Binding % is on record?
A: +++ (+++ indicates binding activity greater than 90%)

Q: For `C=CC(=O)N1C[C@H](C)N(c2nc(N3CC(N(C)C)C3)nc3c(F)c(-c4c[nH]c5ncccc45)c(Cl)cc23)C[C@H]1C` [Compound 300, 1-((2R,5S)-4-(6-chloro-2-(3-(dimethylamino)azetidin-1-yl)-8-fluoro-7-(1H-pyrrolo[2,3-b]pyridin-3-yl)quinazolin-4-yl)-2.5-dimethylpiperazin-1-yl)prop-2-en-1-one], which Binding % is on record?
A: + (+ indicates binding activity greater than 0% and up to 50%)

Q: Which Binding % does the source give for `C=CC(=O)N1C[C@H](C)N(c2nc(N3CC(N(C)C)C3)nc3c(F)c(-c4c(C)ccc5[nH]nc(C#N)c45)c(Cl)cc23)C[C@H]1C` [Compound 292, 4-(4-((2S,5R)-4-acryloyl-2,5-dimethylpiperazin-1-yl)-6-chloro-2-(3-(dimethylamino)azetidin-1-yl)-8-fluoroquinazolin-7-yl)-5-methyl-1H-indazole-3-carbonitrile] here?
A: ++ (++ indicates binding activity from 50 to 90%)

Q: Which Binding % does the source give for `C=CC(=O)N1C[C@H](C)N(c2nc(OCCn3ccnc3C#N)nc3c(F)c(-c4c(C)ccc5[nH]ncc45)c(Cl)cc23)C[C@H]1C` [Compound 279, 1-(2-((4-((2S,5R)-4-acryloyl-2,5-dimethylpiperazin-1-yl)-6-chloro-8-fluoro-7-(5-methyl-1H-indazol-4-yl)quinazolin-2-yl)oxy)ethyl)-1H-imidazole-2-carbonitrile] here?
A: ++ (++ indicates binding activity from 50 to 90%)

Q: For `C=CC(=O)N1C[C@H](C)N(c2nc(N3CC(N(C)C)C3)nc3c(F)c(-c4cc(O)cc5ccccc45)c(C(F)(F)F)cc23)C[C@H]1C` (atropisomer, axis not shown) [Compound 255, 1-((2R,5S)-4-(2-(3-(dimethylamino)azetidin-1-yl)-8-fluoro-7-((R)-3-hydroxynaphthalen-1-yl)-6-(trifluoromethyl)quinazolin-4-yl)-2,5-dimethylpiperazin-1-yl)prop-2-en-1-one], which Binding % is on record?
A: +++ (+++ indicates binding activity greater than 90%)

Q: Which Binding % does the source give for `C=CC(=O)N1C[C@H](C)N(c2nc(N3CC(N(C)C)C3)nc3c(F)c(-c4c(O)cccc4F)c(Cl)cc23)C[C@@H]1C` [Compound 94, 1-((2S,5S)-4-(6-chloro-2-(3-(dimethylamino)azetidin-1-yl)-8-fluoro-7-(2-fluoro-6-hydroxyphenyl)quinazolin-4-yl)-2,5-dimethylpiperazin-1-yl)prop-2-en-1-one] here?
A: + (+ indicates binding activity greater than 0% and up to 50%)

Q: `C=CC(=O)N1C[C@H](C)N(c2nc(N3CC(N(C)C)C3)nc3c(F)c(-c4c(O)cccc4F)c(C(F)(F)F)cc23)C[C@H]1C` [Compound 206, 1-((2R,5S)-4-(2-(3-(dimethylamino)azetidin-1-yl)-8-fluoro-7-(2-fluoro-6-hydroxyphenyl)-6-(trifluoromethyl)quinazolin-4-yl)-2,5-dimethylpiperazin-1-yl)prop-2-en-1-one] was tested. Which Binding % did it give?
A: +++ (+++ indicates binding activity greater than 90%)

Q: With `C=CC(=O)N1C[C@H](C)N(c2nc(OCCc3nccn3C)nc3c(F)c(-c4c(O)cccc4F)c(Cl)cc23)C[C@H]1C` (atropisomer, axis not shown) [Compound 288, 1-((2R,5S)-4-((S)-6-chloro-8-fluoro-7-(2-fluoro-6-hydroxyphenyl)-2-(2-(1-methyl-1H-imidazol-2-yl)ethoxy)quinazolin-4-yl)-2,5-dimethylpiperazin-1-yl)prop-2-en-1-one] as the compound, how does the Binding % read?
A: +++ (+++ indicates binding activity greater than 90%)

Q: For `C=CC(=O)N1C[C@H](C)N(c2nc(OCCn3ccnc3C3CC3)nc3c(F)c(-c4c(O)cccc4F)c(Cl)cc23)C[C@H]1C` (atropisomer, axis not shown) [Compound 275, 1-((2R,5S)-4-(6-chloro-2-(2-(2-cyclopropyl-1H-imidazol-1-yl)ethoxy)-8-fluoro-7-((S)-2-fluoro-6-hydroxyphenyl)quinazolin-4-yl)-2,5-dimethylpiperazin-1-yl)prop-2-en-1-one], which Binding % is on record?
A: +++ (+++ indicates binding activity greater than 90%)

Q: Which Binding % does the source give for `C=CC(=O)N1C[C@H](C)N(c2nc(OCCc3cncn3C)nc3c(F)c(-c4c(O)cccc4F)c(Cl)cc23)C[C@H]1C` (atropisomer, axis not shown) [Compound 284, 1-((2R,5S)-4-(6-chloro-8-fluoro-7-((S)-2-fluoro-6-hydroxyphenyl)-2-(2-(1-methyl-1H-imidazol-5-yl)ethoxy)quinazolin-4-yl)-2,5-dimethylpiperazin-1-yl)prop-2-en-1-one] here?
A: +++ (+++ indicates binding activity greater than 90%)

Q: Which Binding % does the source give for `C=CC(=O)N1C[C@H](C)N(c2nc(N3CC(N(C)C)C3)nc3c(F)c(-c4c(C)ccc5cn[nH]c45)c(Cl)cc23)C[C@H]1C` [Compound 187, 1-((2R,5S)-4-(6-chloro-2-(3-(dimethylamino)azetidin-1-yl)-8-fluoro-7-(6-methyl-1H-indazol-7-yl)quinazolin-4-yl)-2,5-dimethylpiperazin-1-yl)prop-2-en-1-one] here?
A: +++ (+++ indicates binding activity greater than 90%)

Q: With `C=CC(=O)N1C[C@H](C)N(c2nc(OCCn3ccnc3CC)nc3c(F)c(-c4c(C)ccc5[nH]ncc45)c(Cl)cc23)C[C@H]1C` [Compound 283, 1-((2R,5S)-4-(6-chloro-2-(2-(2-ethyl-1H-imidazol-1-yl)ethoxy)-8-fluoro-7-(5-methyl-1H-indazol-4-yl)quinazolin-4-yl)-2,5-dimethylpiperazin-1-yl)prop-2-en-1-one] as the compound, how does the Binding % read?
A: +++ (+++ indicates binding activity greater than 90%)

Q: How did the Binding % turn out when `C=CC(=O)N1C[C@H](C)N(c2nc(OCCc3nccn3C)nc3c(F)c(-c4c(C)ccc5[nH]ncc45)c(Cl)cc23)C[C@H]1C` [Compound 293, 1-((2R,5S)-4-(6-chloro-8-fluoro-2-(2-(1-methyl-1H-imidazol-2-yl)ethoxy)-7-(5-methyl-1H-indazol-4-yl)quinazolin-4-yl)-2,5-dimethylpiperazin-1-yl)prop-2-en-1-one] was run?
A: ++ (++ indicates binding activity from 50 to 90%)
